# Experimental data taken from patent US12637478B2, “Compound, preparation method thereof, and antibiotic composition comprising same” (priority 2020, dated 2026).
# What was measured:
# S. aureus^MS [1] = assay: MIC by broth microdilution (aerobic pathogens), test strain 2; type: cell-based; details: Staphylococcus aureus
# Procedure: (§1) The antibacterial activity of the compounds of Examples 1 to 48 of the present invention against aerobic pathogens were evaluated by measuring the minimum concentration of the antibiotic capable of inhibiting bacterial growth by 90% compared to the growth of the non-drug treated control group. MIC was measured by the broth microdilution method based on CLSI standards [Reference: Clinical and Laboratory Standards Institute Document. (2000) Methods for Dilution Antimicrobial Susceptibility Test for Bacteria that Grow Aerobically-Fifth Edition: M7-A5. CLSI, Villanova, PA].
# (§2) All 13 strains such as methicillin susceptible Staphylococcus aureus (MSSA), methicillin resistant Staphylococcus aureus (MRSA), Vancomycin resistant Staphylococcus aureus (VRSA), Staphylococcus epidermidis, methicillin resistant Staphylococcus epidermidis, Enterococcus faecalis, Vancomycin resistant Enterococcus faecalis, Enterococcus faecium, Vancomycin resistant Enterococcus faecium were used.
# S. epidermis^MR = assay: MIC by broth microdilution (aerobic pathogens), test strain 6; type: cell-based, Methicillin resistant Staphylococcus epidermidis; details: Staphylococcus epidermidis; test strain 6, S. epidermis^MR (methicillin resistant); read-out: MIC
# Procedure: as §1, §2
# E. faecalis = assay: MIC by broth microdilution (aerobic pathogens), test strain 7; type: cell-based; details: Enterococcus faecalis; test strain 7, E. faecalis; read-out: MIC
# Procedure: as §1, §2
# S. epidermis = assay: MIC by broth microdilution (aerobic pathogens), test strain 5; type: cell-based; details: Staphylococcus epidermidis; test strain 5, S. epidermis; read-out: MIC
# Procedure: as §1, §2
# E. faecalis^LinR = assay: MIC by broth microdilution (aerobic pathogens), test strain 9; type: cell-based, Linezolid resistant Enterococcus faecalis; details: Enterococcus faecalis; test strain 9, E. faecalis^LinR (linezolid resistant); read-out: MIC
# Procedure: as §1, §2
# S. aureus^MS [2] = assay: MIC by broth microdilution (aerobic pathogens), test strain 1; type: cell-based; details: Staphylococcus aureus
# Procedure: as §1, §2
# E. faecium = assay: MIC by broth microdilution (aerobic pathogens), test strain 10; type: cell-based; details: Enterococcus faecium; test strain 10, E. faecium; read-out: MIC
# Procedure: as §1, §2
# C. difficile 152 = assay: MIC by agar dilution against Clostridioides difficile, test strain 14; type: cell-based; details: test strain 14, C. difficile 152, anaerobic, agar dilution, read-out: MIC
# C. difficile 9689 = assay: MIC by agar dilution against Clostridioides difficile, test strain 13; type: cell-based; details: test strain 13, C. difficile 9689, anaerobic, agar dilution, read-out: MIC
# C. difficile 174 = assay: MIC by agar dilution against Clostridioides difficile, test strain 18; type: cell-based; details: test strain 18, C. difficile 174, anaerobic, agar dilution, read-out: MIC
# C. difficile 173 = assay: MIC by agar dilution against Clostridioides difficile, test strain 17; type: cell-based; details: test strain 17, C. difficile 173, anaerobic, agar dilution, read-out: MIC
# E. faecalis^VanA = assay: MIC by broth microdilution (aerobic pathogens), test strain 8; type: cell-based, Vancomycin resistant Enterococcus faecalis; details: Enterococcus faecalis; test strain 8, E. faecalis^VanA (vancomycin resistant); read-out: MIC
# Procedure: as §1, §2
# [3] = test strain 2, S. aureus^MS, read-out: MIC
# [4] = test strain 1, S. aureus^MS, read-out: MIC
Structure (SMILES),MIC (S. aureus^MS [1]; [3]),MIC (S. epidermis^MR),MIC (E. faecalis),MIC (S. epidermis),MIC (E. faecalis^LinR),MIC (S. aureus^MS [2]; [4]),other results
C/C=C1\NC(=O)[C@H]([C@@H](C)O)NC(=O)c2csc(n2)-c2ccc(-c3nc(-c4nc(C(=O)NC5(C(=O)NCCCN6CCN(C7CC7)CC6)CC5)cs4)cs3)nc2-c2csc(n2)[C@H]([C@@H](C)O)NC(=O)c2csc(n2)[C@H](C(C)C)NC(=O)c2csc1n2 [Compound 15],1 µg/mL,1 µg/mL,1 µg/mL,1 µg/mL,0.5 µg/mL,1 µg/mL,MIC (E. faecium): 1 µg/mL
C/C=C1\NC(=O)[C@H]([C@@H](C)O)NC(=O)c2csc(n2)-c2ccc(-c3nc(-c4nc(C(=O)NC5(C(=O)NCCCCCCB(O)O)CC5)cs4)cs3)nc2-c2csc(n2)[C@H]([C@@H](C)O)NC(=O)c2csc(n2)[C@H](C(C)C)NC(=O)c2csc1n2 [Compound 27],0.5 µg/mL,,,,0.5 µg/mL,0.25 µg/mL,
C/C=C1\NC(=O)[C@H]([C@@H](C)O)NC(=O)c2csc(n2)-c2ccc(-c3nc(-c4nc(C(=O)NC5(C(=O)NCCCn6c(=O)[nH]cc([N+](=O)[O-])c6=O)CC5)cs4)cs3)nc2-c2csc(n2)[C@H]([C@@H](C)O)NC(=O)c2csc(n2)[C@H](C(C)C)NC(=O)c2csc1n2 [Compound 22],0.125 µg/mL,,,,0.5 µg/mL,0.25 µg/mL,MIC (C. difficile 152): 0.125 µg/mL; MIC (C. difficile 9689): 0.125 µg/mL; MIC (C. difficile 174): 0.125 µg/mL; MIC (C. difficile 173): 0.5 µg/mL
C/C=C(\NC(=O)c1csc(-c2csc(-c3ccc4c(n3)-c3csc(n3)[C@H]([C@@H](C)O)NC(=O)c3csc(n3)[C@H](C(C)C)NC(=O)c3csc(n3)/C(=C/C)NC(=O)[C@H]([C@@H](C)O)NC(=O)c3csc-4n3)n2)n1)C(=O)NCCCN1CCN(C(C)C)CC1 [Compound 34],1 µg/mL,0.5 µg/mL,1 µg/mL,0.25 µg/mL,,0.5 µg/mL,MIC (E. faecalis^VanA): 1 µg/mL
C/C=C1\NC(=O)[C@H]([C@@H](C)O)NC(=O)c2csc(n2)-c2ccc(-c3nc(-c4nc(C(=O)NC5(C(=O)NCCN6CCN(C7CC7)CC6)CC5)cs4)cs3)nc2-c2csc(n2)[C@H]([C@@H](C)O)NC(=O)c2csc(n2)[C@H](C(C)C)NC(=O)c2csc1n2 [Compound 33],,0.5 µg/mL,,1 µg/mL,0.5 µg/mL,1 µg/mL,
C/C=C1\NC(=O)[C@H]([C@@H](C)O)NC(=O)c2csc(n2)-c2ccc(-c3nc(-c4nc(C(=O)NC5(C(=O)NCCN)CC5)cs4)cs3)nc2-c2csc(n2)[C@H]([C@@H](C)O)NC(=O)c2csc(n2)[C@H](C(C)C)NC(=O)c2csc1n2 [Compound 25],,,,,,,MIC (S. aureus^MS [1]): 1 µg/mL; MIC (S. aureus^MS [2]): 1 µg/mL
C/C=C1\NC(=O)[C@H]([C@@H](C)O)NC(=O)c2csc(n2)-c2ccc(-c3nc(-c4nc(C(=O)NC5(C(=O)NCCN6CCN(CCC(=O)OC)CC6)CC5)cs4)cs3)nc2-c2csc(n2)[C@H]([C@@H](C)O)NC(=O)c2csc(n2)[C@H](C(C)C)NC(=O)c2csc1n2 [Compound 24],1 µg/mL,1 µg/mL,1 µg/mL,0.25 µg/mL,1 µg/mL,0.5 µg/mL,
C/C=C1\NC(=O)[C@H]([C@@H](C)O)NC(=O)c2csc(n2)-c2ccc(-c3nc(-c4nc(C(=O)NC5(C(=O)NCCCN6C(=O)CN(CCC(=O)O)C6=O)CC5)cs4)cs3)nc2-c2csc(n2)[C@H]([C@@H](C)O)NC(=O)c2csc(n2)[C@H](C(C)C)NC(=O)c2csc1n2 [Compound 19],,,,,,,MIC (S. aureus^MS [2]): 0.5 µg/mL
C/C=C1\NC(=O)[C@H]([C@@H](C)O)NC(=O)c2csc(n2)-c2ccc(-c3nc(-c4nc(C(=O)NC5(C(=O)NCCN6CCN(CCCC#N)CC6)CC5)cs4)cs3)nc2-c2csc(n2)[C@H]([C@@H](C)O)NC(=O)c2csc(n2)[C@H](C(C)C)NC(=O)c2csc1n2 [Compound 31],1 µg/mL,0.5 µg/mL,1 µg/mL,0.25 µg/mL,,0.5 µg/mL,MIC (E. faecalis^VanA): 1 µg/mL
C/C=C1\NC(=O)[C@H]([C@@H](C)O)NC(=O)c2csc(n2)-c2ccc(-c3nc(-c4nc(C(=O)NC5(C(=O)NCCCNC6COC6)CC5)cs4)cs3)nc2-c2csc(n2)[C@H]([C@@H](C)O)NC(=O)c2csc(n2)[C@H](C(C)C)NC(=O)c2csc1n2 [Compound 17],1 µg/mL,,,,,1 µg/mL,
